Measurements taken from patent US8357504B2, “Method and kit for the microbiological determination of vitamins in substance mixtures” (IFP Privates Institut fur Produktqualitat GmbH, priority 2004, dated 2013).
Where “and” joins values, the source holds several entries; their conditions need not be identical. Equal entries are not always repeated.

Legend:
[1] = tested on: Lactobacillus rhamnosus ATCC 7469; test: Microbiological riboflavin determination (growth turbidity, riboflavin assay medium); format: cell-based; conditions: for Average value (measurement at 630 nm): number 3; for Measurement at 630 nm: single well
Text: The preparation of the microtitration plate and the determination of riboflavin was effected as in Example 1, except only that Lactobacillus rhamnosus ATCC 7469 was employed as test organism. As assay medium there was employed Difco™ riboflavin assay medium, containing cas amino acids 10.0 g/L, dextrose 20.0 g/L, sodium acetate 15.0 g/L, dipotassium hydrogen phosphate 1.0 g/L, potassium dihydrogen phosphate 1.0 g/L, L-asparagine 0.6 g/L, L-cystine 0.2 g/L, DL-tryptophane 0.2 g/L, magnesium sulfate 0.4 g/L, adenine sulfate 20.0 mg/L, guanine hydrochloride 20.0 mg/L, uracil 20.0 mg/L, xanthin 20 mg/L, iron sulfate 20.0 mg/L, manganese sulfate 20.0 mg/L, sodium chloride 20.0 mg/L, pyridoxine hydrochloride 4.0 mg/L, pyridoxal hydrochloride 4.0 mg/L, p-aminobenzoic acid 2.0 mg/L, calcium pantothenate 800 μg/L, folic acid 800 μg/L, nicotinic acid 800 μg/L, thiamine hydrochloride 400 μg/L, biotin 1.0 μg/L. The storage medium additionally contained 200 mM trehalose.

[2] = tested on: Lactobacillus plantarum (ATCC 8014); conditions: cited from earlier work
[3] = riboflavin standard 0.1 mg/100 g
[4] = riboflavin standard 0.2 mg/100 g
[5] = riboflavin standard 0.3 mg/100 g
[6] = riboflavin standard 0.4 mg/100 g
[7] = riboflavin standard 0.5 mg/100 g

Compound	Average value (measurement at 630 nm) [1, 3]	Measurement at 630 nm [1, 3]	Average value (measurement at 630 nm) [1, 4]	Measurement at 630 nm [1, 4]	Average value (measurement at 630 nm) [1, 5]	Measurement at 630 nm [1, 5]	Average value (measurement at 630 nm) [1, 6]	Measurement at 630 nm [1, 6]	Average value (measurement at 630 nm) [1, 7]	Measurement at 630 nm [1, 7]	Consumption by the test organism [2]
Cc1cc2nc3c(=O)[nH]c(=O)nc-3n(C[C@H](O)[C@H](O)[C@H](O)CO)c2cc1C [B2 Riboflavin, riboflavin]	0.204	0.196 and 0.209 and 0.206	0.398	0.404 and 0.408 and 0.383	0.623	0.624 and 0.616 and 0.628	0.759	0.752 and 0.755 and 0.771	0.88	0.855 and 0.886 and 0.9	
Niacytine											not consumed
